Laboratory results from patent US20230097883A1, “ERGOTHIONEINE PET COMPOUNDS AND METHODS OF USE THEREOF” (VANDERBILT UNIVERSITY, priority 2021, published 2023).

Tested on: oxidative stress
Experiment: PET imaging of LPS-induced neuroinflammation with [11C]ERGO radioligand, with Tempol blocking
Assay type: in vivo, mouse
Conditions: LPS-treated WT mice, Tempol 0.2 mg/mL prior to [11C]ERGO
Procedure: The mice were injected with ˜20 MBq/0.1 ml 11C-ERGO via the tail vein and returned to their cages for 10 min. Then they were anesthetized with 2% isofluorane and imaged in an Inveon microPET (Siemens Pre-clinical, Knoxville, Tenn., USA) for 30 min in static mode followed by a CT scan using a NanoSPECT/CT (Mediso, Wash. D.C.) at an x-ray beam intensity of […] and x-ray voltage of 45 kVp. PET images were reconstructed using the iterative MAP reconstruction algorithm with 18 iterations and a beta smoothing value of 0.001 into 128×128×95 slices with a voxel size of 0.388 mm×0.388 mm×0.796 mm. The CT images were reconstructed into 170×170×126 slices at a voxel size of 0.4×0.4×0.4 mm^3. The PET and CT images were co-registered using the imaging tool AMIDE.
The mouse model of LPS-induced neuroinflammation was developed based on past reports. The LPS derived from Escherichia coli […] (Sigma Aldrich, St Louis, Mo.) was formulated in sterilized dd. water and given a high dose of LPS formulation (5 mg/Kg) through intraperitoneal injection 24 h before PET imaging. This high dose would result in approximately 12-13% body weight loss over the course of 24 h. After PET imaging, animals were sacrificed, and the brains were collected for histology analysis.
The reported LPS mouse model of neuroinflammation in the past was reproduced for the validation of the specificity of the probe. […]

Compound: CC1(C)CC(O)CC(C)(C)N1[O] [Tempol, 4-hydroxy-2,2,6,6-tetramethyl piperidinoxyl, reference compound]
- [11C]ERGO PET signal in brain of LPS-treated mice after co-injection with excess Tempol (blocking): significant reduction of the PET signal
